In patent US7863247B1, “Prevention of fetal alcohol syndrome and neuronal cell death with ADNF polypeptides” (Ramot-University Authority for Applied Research and …, priority 2000, dated 2011):
No end group written: not given here.

Assays:
[1] = test system: C57-B16J mice exposed to alcohol in utero; test: Fetal death (% demises at E18) in the FAS model; type: in vivo; settings: pretreatment 30 min prior to alcohol on E8 (NAP 20 μg; NAP 20 μg+SAL 20 μg; VIP 1 μg); counted at E18
Procedure: (§1) A published well-delineated model for FAS was followed (Webster et al., Neurobehav Tox, 2:227-34 (1980)). Animals were injected (intraperitoneal) on E8 with 25% ethyl alcohol in saline (v/v) or vehicle alone at 0.030 ml/g body weight at 0900 on E8. Pretreatment with VIP and ADNF polypeptides (e.g., NAP, SAL, NAP+SAL) were given 30 min prior to alcohol. Post-treatment with NAP+SAL was given at 1 or 3 h after alcohol. Dosages of the neuropeptides were NAP (20 μg and 40 μg), SAL (20 μg), NAP (20 μg)+SAL (20 μg); VIP (1 μg). NAP+SAL without alcohol was also studied. NAP was diluted in 50 μl DMSO and diluted in filtered Dulbecco's phosphate buffered saline (DPBS). SAL was dissolved and diluted in filtered DPBS. VIP was dissolved in 20 μl glacial acetic acid and diluted in HPLC water and DPBS. […]
(§2) At E18 (embryonic gestation day 18), the number of live and demised fetuses was determined. […] The mean fetal weights were determined for each mother, and this was used for statistical analysis.
(§3) The mean litter pup and fetal brain weight was calculated, with the litter mean used for all statistical analysis. Percent demises were calculated by dividing the number of demises by the total number of fetuses (live plus demises). […]

[2] = test system: C57-B16J mice exposed to alcohol in utero; test: Fetal weights at E18 in the FAS model; type: in vivo
Procedure: A published well-delineated model for FAS was followed (Webster et al., Neurobehav Tox, 2:227-34 (1980)). Animals were injected (intraperitoneal) on E8 with 25% ethyl alcohol in saline (v/v) or vehicle alone at 0.030 ml/g body weight at 0900 on E8. Pretreatment with VIP and ADNF polypeptides (e.g., NAP, SAL, NAP+SAL) were given 30 min prior to alcohol. Post-treatment with NAP+SAL was given at 1 or 3 h after alcohol. Dosages of the neuropeptides were NAP (20 μg and 40 μg), SAL (20 μg), NAP (20 μg)+SAL (20 μg); VIP (1 μg). NAP+SAL without alcohol was also studied. NAP was diluted in 50 μl DMSO and diluted in filtered Dulbecco's phosphate buffered saline (DPBS). SAL was dissolved and diluted in filtered DPBS. VIP was dissolved in 20 μl glacial acetic acid and diluted in HPLC water and DPBS. Since the animals receiving alcohol were incapacitated for approximately 6 hours following injection, food and water were withheld from all groups for the initial 6 hours, to allow accurate assessment of fetal weights.
At E18 (embryonic gestation day 18), the number of live and demised fetuses was determined. Fetal weights and fetal brain weights were obtained for each fetus in the litter. The mean fetal weights were determined for each mother, and this was used for statistical analysis.
The mean litter pup and fetal brain weight was calculated, with the litter mean used for all statistical analysis. Percent demises were calculated by dividing the number of demises by the total number of fetuses (live plus demises). Statistical analysis included ANOVA for continuous variables, Mann-Whitney U for nonparametic data, Chi square for categorical variables or Fisher's exact test where appropriate [Statview 4.5 (Abacus Concepts, Inc., Berkeley, Calif.)] with p<0.05 considered significant. Results are presented as mean±standard error unless specified.

[3] = Bioavailability of 3H-NAP to embryos (size exclusion chromatography); type: in vivo, mice
Procedure: FIG. 7a and FIG. 7b illustrate chromatographs of radiolabel (^3H) present in 1 ml fractions from a size exclusion column (Superdex Peptide HR 10/30, Pharmacia Biotech). ^3H-NAP (2 μCi/20 μg) was administered intraperitoneally to pregnant mice at E8. Intact NAP was present in fractions 15-17 denoted by shaded grey bar on graphs. FIG. 7a illustrates a pooled sample of three embryos (different litters) after a thirty minute exposure to ^3H-NAP. Based on this accumulation of labeled peptide, approximately 1 pmoles of NAP was found in the embryo, with an estimated concentration of 10 nM, well within the therapeutic range of NAP. FIG. 7b illustrates a pooled sample of three embryos (different litters) after a sixty minute exposure to ^3H-NAP.
The bioavailability of NAP to embryos was assessed by intraperitoneal administration of ^3H-NAP (2 μCi/20 μg) to pregnant mice at E8. […] Based on this accumulation of labeled peptide, approximately […] of NAP was found in the embryo, with an estimated concentration of 10 nM, well within the therapeutic range of NAP.

[4] = test system: C57-B16J mice exposed to alcohol in utero; test: Fetal brain weights at E18 in the FAS model; type: in vivo; settings: pretreatment 30 min prior to alcohol on E8 (SAL 20 μg; NAP 20 μg+SAL 20 μg)
Procedure: as §1, §2, §3

[5] = pretreatment 30 min prior to alcohol on E8 (NAP 20 μg; SAL 20 μg; NAP 20 μg+SAL 20 μg; VIP 1 μg)

Row | Substance | percentage of fetal demises [1] | fetal weights (alcohol-induced growth restriction) [2, 5] | fetal weights (alcohol-induced growth restriction) ([2]; pretreatment with a double dosage of NAP (40 μg)) | estimated concentration of NAP in the embryo ([3]; 3H-NAP 2 μCi/20 μg intraperitoneal at E8, 30 min) [nM] | radioactivity recovered in the embryo co-migrating with intact NAP ([3]; 3H-NAP 2 μCi/20 μg intraperitoneal to pregnant mice at E8, 30 min after administration) [%] | fetal brain weights (alcohol-induced microcephaly) [4]
1 | Asn-Ala-Pro-Val-Ser-Ile-Pro-Gln [NAP] | prevented the death seen with alcohol | moderately prevented the alcohol-induced growth restrictions | moderately prevented the alcohol-induced growth restriction | ~10 | 60 | 
2 | SALLRSIPA |  | did not prevent the alcohol-induced fetal weight reduction |  |  |  | moderately prevented the alcohol-induced fetal brain weight reduction
3 | vasoactive intestinal peptide (HSDAVFTDNYTRLRKQMAVKKYLNSILN; ends and bridges not checked; UniProt P01282 125-152, looked up) [VIP, neuropeptide that is a regulator of early postimplantation mouse embryonic growth, reference compound] | did not reverse the fetal death rate | improved embryonic weights; however, the effect was intermediate and not statistically significant |  |  |  | 
